# Measured values taken from PubChem BioAssay AID1259407 (Chemical Carcinogenesis Research Information System (CCRIS), 2018).
# Active and inactive are the calls of the source. No rule for the calls is given here.
# Tested on: CCRIS mutagenicity, Ames/micronucleus/aberration tests
# Assay: CCRIS mutagenicity studies
# [1] = Test System: AMES SALMONELLA TYPHIMURIUM, Strain/Indicator: TA98, Metabolic Activation: NONE, Method: PREINCUBATION
# [2] = Test System: AMES SALMONELLA TYPHIMURIUM, Strain/Indicator: TA1535, Metabolic Activation: HAMSTER, LIVER, S-9, AROCLOR 1254, Method: STANDARD PLATE
# [3] = Test System: AMES SALMONELLA TYPHIMURIUM, Strain/Indicator: TA1535, Metabolic Activation: NONE, Method: STANDARD PLATE
# [4] = Test System: AMES SALMONELLA TYPHIMURIUM, Strain/Indicator: TA98, Metabolic Activation: NONE, Method: STANDARD PLATE
# [5] = Test System: AMES SALMONELLA TYPHIMURIUM, Strain/Indicator: TA98, Metabolic Activation: RAT, LIVER, S-9, AROCLOR 1254, Method: STANDARD PLATE
# [6] = Test System: AMES SALMONELLA TYPHIMURIUM, Strain/Indicator: TA100, Metabolic Activation: NONE, Method: STANDARD PLATE
structure (smiles),measurement,setting,value
CC1CC(=O)O1 (stereo not given),mutagenic call,"Test System: AMES SALMONELLA TYPHIMURIUM, Strain/Indicator: G46, Metabolic Activation: NONE, Method: STANDARD PLATE",active; positive
same,mutagenic call,"Test System: AMES SALMONELLA TYPHIMURIUM, Strain/Indicator: TA98, Metabolic Activation: HAMSTER, LIVER, S-9, AROCLOR 1254 (30%), Method: PREINCUBATION",active; positive
same,mutagenic call,[1],active; positive
same,mutagenic call,"Test System: AMES SALMONELLA TYPHIMURIUM, Strain/Indicator: TA98, Metabolic Activation: RAT, LIVER, S-9, AROCLOR 1254 (30%), Method: PREINCUBATION",active; positive
same,mutagenic call,"Test System: AMES SALMONELLA TYPHIMURIUM, Strain/Indicator: TA100, Metabolic Activation: HAMSTER, LIVER, S-9, AROCLOR 1254 (30%), Method: PREINCUBATION",active; positive
same,mutagenic call,"Test System: AMES SALMONELLA TYPHIMURIUM, Strain/Indicator: TA100, Metabolic Activation: NONE, Method: PREINCUBATION",active; positive
same,mutagenic call,"Test System: AMES SALMONELLA TYPHIMURIUM, Strain/Indicator: TA100, Metabolic Activation: RAT, LIVER, S-9, AROCLOR 1254 (30%), Method: PREINCUBATION",active; positive
COC(=O)c1ccc(CN(C)N=O)cc1,mutagenic call,[2],inactive; negative
same,mutagenic call,[3],inactive; negative
CC(=O)[C@]1(O)Cc2c(O)c3c(c(O)c2[C@@H](O[C@H]2C[C@H](N)[C@H](O)[C@H](C)O2)C1)C(=O)c1c(O)cccc1C3=O,mutagenic call,"Test System: AMES SALMONELLA TYPHIMURIUM, Strain/Indicator: GW257, Metabolic Activation: NONE, Method: STANDARD PLATE",active; positive
same,mutagenic call,"Test System: AMES SALMONELLA TYPHIMURIUM, Strain/Indicator: TA97, Metabolic Activation: NONE, Method: STANDARD PLATE",active; positive
same,mutagenic call,[1],active; positive
same,mutagenic call,[4],active; positive
same,mutagenic call,[5],active; positive
same,mutagenic call,[6],active; positive
same,mutagenic call,"Test System: AMES SALMONELLA TYPHIMURIUM, Strain/Indicator: TA104, Metabolic Activation: NONE, Method: STANDARD PLATE",inactive; negative
same,mutagenic call,"Test System: AMES SALMONELLA TYPHIMURIUM, Strain/Indicator: TA1538, Metabolic Activation: NONE, Method: STANDARD PLATE",active; positive
same,mutagenic call,"Test System: AMES SALMONELLA TYPHIMURIUM, Strain/Indicator: TA2637, Metabolic Activation: NONE, Method: STANDARD PLATE",active; positive
O=C1CCc2c1cc(C(F)(F)F)c1c2ccc2ccccc21,mutagenic call,"Test System: AMES SALMONELLA TYPHIMURIUM, Strain/Indicator: TA100, Metabolic Activation: RAT, LIVER, S-9, AROCLOR 1254",active; positive
O=[N+]([O-])c1cc(-c2ccccc2)cc([N+](=O)[O-])c1O,mutagenic call,[1],active; positive
O=NN(c1ccc([N+](=O)[O-])cc1)C1OC[C@@H](O)[C@H](O)[C@H]1O (stereo not given in full),mutagenic call,[6],active; positive
O=C1OC(O)C(C(Br)Br)=C1Cl (stereo not given),mutagenic call,[4],active; positive
same,mutagenic call,"Test System: AMES SALMONELLA TYPHIMURIUM, Strain/Indicator: TA98, Metabolic Activation: RAT LIVER S-9, AROCLOR 1254, Method: STANDARD PLATE",inactive; negative
same,mutagenic call,[6],active; positive
same,mutagenic call,"Test System: AMES SALMONELLA TYPHIMURIUM, Strain/Indicator: TA100, Metabolic Activation: RAT LIVER S-9, AROCLOR 1254, Method: STANDARD PLATE",inactive; negative
C=CC(O)CO (stereo not given),mutagenic call,"Test System: Mouse splenic T lymphocytes in vivo, Strain/Indicator: B6C3F1 females (HPRT)/6-Thioguanine, Metabolic Activation: None, Method: Inhalation at 0, 6, 18, 36 ppm 6 hr/day for 4 wks (sacrifice 2-8 wks post exposure)",active; positive (especially at 5.5-6 wk after last exposure)
same,mutagenic call,"Test System: Mouse splenic T lymphocytes in vivo, Strain/Indicator: B6C3F1 males (HPRT)/6-Thioguanine, Metabolic Activation: None, Method: Inhalation at 0, 6, 18, 36 ppm 6 hr/day for 4 wks (sacrifice 2-8 wks post exposure)",active; positive (especially at 5.5-6 wk after last exposure)
same,mutagenic call,"Test System: Rat splenic T lymphocytes in vivo, Strain/Indicator: F344 females (HPRT)/6-Thioguanine, Metabolic Activation: None, Method: Inhalation at 0, 36 ppm 6 hr/day for 4 wks (sacrifice 2-8 wks post exposure)",active; positive (at 5-6 wks)
O=C1CCc2c1ccc1c2ccc2ccccc21,mutagenic call,"Test System: AMES SALMONELLA TYPHIMURIUM, Strain/Indicator: TA100, Metabolic Activation: RAT, LIVER, MICROSOMES, AROCLOR 1254, Method: STANDARD PLATE",active; positive
same,mutagenic call,"Test System: AMES SALMONELLA TYPHIMURIUM, Strain/Indicator: TA100, Metabolic Activation: RAT, LIVER, MICROSOMES, BENZO[A]PYRENE, Method: STANDARD PLATE",inactive; negative
same,mutagenic call,"Test System: AMES SALMONELLA TYPHIMURIUM, Strain/Indicator: TA100, Metabolic Activation: RAT, LIVER, MICROSOMES, CLOFIBRATE, Method: STANDARD PLATE",inactive; negative
same,mutagenic call,"Test System: AMES SALMONELLA TYPHIMURIUM, Strain/Indicator: TA100, Metabolic Activation: RAT, LIVER, MICROSOMES, DEXAMETHASONE, Method: STANDARD PLATE",inactive; negative
same,mutagenic call,"Test System: AMES SALMONELLA TYPHIMURIUM, Strain/Indicator: TA100, Metabolic Activation: RAT, LIVER, MICROSOMES, ISONIAZID, Method: STANDARD PLATE",inactive; negative
same,mutagenic call,"Test System: AMES SALMONELLA TYPHIMURIUM, Strain/Indicator: TA100, Metabolic Activation: RAT, LIVER, MICROSOMES, PHENOBARBITONE, Method: STANDARD PLATE",inactive; negative
CC(=O)O[C@@H]1[C@@H](O)[C@H](O[C@H]2[C@H](OC(=O)[C@H]3CC[C@@H]4[C@H](C3)O[C@@]3(C[C@H](OC(=O)/C=C/c5ccccc5)[C@H](C)CO3)[C@]43CO3)O[C@H](C)[C@@H](O)[C@@H]2OC(C)=O)O[C@H](C)[C@H]1O,mutagenic call,"Test System: AMES SALMONELLA TYPHIMURIUM, Strain/Indicator: TA98, Metabolic Activation: HAMSTER, LIVER, S-9, AROCLOR 1254, Method: STANDARD PLATE",inactive; negative
same,mutagenic call,[4],inactive; negative
same,mutagenic call,[5],inactive; negative
same,mutagenic call,"Test System: AMES SALMONELLA TYPHIMURIUM, Strain/Indicator: TA100, Metabolic Activation: HAMSTER, LIVER, S-9, AROCLOR 1254, Method: STANDARD PLATE",inactive; negative
same,mutagenic call,[6],inactive; negative
same,mutagenic call,"Test System: AMES SALMONELLA TYPHIMURIUM, Strain/Indicator: TA100, Metabolic Activation: RAT, LIVER, S-9, AROCLOR 1254, Method: STANDARD PLATE",inactive; negative
same,mutagenic call,[2],inactive; negative
same,mutagenic call,[3],inactive; negative
same,mutagenic call,"Test System: AMES SALMONELLA TYPHIMURIUM, Strain/Indicator: TA1535, Metabolic Activation: RAT, LIVER, S-9, AROCLOR 1254, Method: STANDARD PLATE",inactive; negative
same,mutagenic call,"Test System: AMES SALMONELLA TYPHIMURIUM, Strain/Indicator: TA1537, Metabolic Activation: HAMSTER, LIVER, S-9, AROCLOR 1254, Method: STANDARD PLATE",inactive; negative
same,mutagenic call,"Test System: AMES SALMONELLA TYPHIMURIUM, Strain/Indicator: TA1537, Metabolic Activation: NONE, Method: STANDARD PLATE",inactive; negative
same,mutagenic call,"Test System: AMES SALMONELLA TYPHIMURIUM, Strain/Indicator: TA1537, Metabolic Activation: RAT, LIVER, S-9, AROCLOR 1254, Method: STANDARD PLATE",inactive; negative
c1ccc2sc(SN3CCOCC3)nc2c1,mutagenic call,[4],inactive; negative
same,mutagenic call,"Test System: AMES SALMONELLA TYPHIMURIUM, Strain/Indicator: TA98, Metabolic Activation: S-9, Method: STANDARD PLATE",inactive; negative
same,mutagenic call,[6],inactive; negative
same,mutagenic call,"Test System: AMES SALMONELLA TYPHIMURIUM, Strain/Indicator: TA100, Metabolic Activation: S-9, Method: STANDARD PLATE",inactive; negative
